Source: the supplement of paper PMC11061612

Columns and labels:
Assay in all cases: combination Emax (second highest fraction inhibited in the dose matrix, 72 h); higher = more inhibition; extreme values may be limits of the assay
[1] = test system: BxPC-3 (Pancreatic Carcinoma)
Procedure, shortened: (§1)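 After 24 hours at 37°C and 5% CO2 in 1536-well plates, cells in DMEM/F12 or RPMI plus 10% FBS received two-drug dose matrices for 72 hours. Viability came from CellTiter-Glo 2.0 luminescence and was scaled as inhibition, anchored at 0 by vehicle wells and at 1 by blank wells. Combination Emax is taken as the second-highest inhibition in the matrix, and Bliss excess as the observed combination effect less EA + EB − EA·EB, with EA and EB the single-agent effects.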

[2] = test system: C-33-A (Cervical Carcinoma)
Procedure, shortened: as §1

GAK (Melanoma) = test system: GAK (Melanoma)
Procedure, shortened: as §1

[3] = test system: HPAF-II (Pancreatic Carcinoma)
Procedure, shortened: as §1

[4] = test system: IA-LM (Non-Small Cell Lung Carcinoma)
Procedure, shortened: as §1

IST-MEL1 (Melanoma) = test system: IST-MEL1 (Melanoma)
Procedure, shortened: as §1

KALS-1 (Glioblastoma) = test system: KALS-1 (Glioblastoma)
Procedure, shortened: as §1

[5] = test system: LCLC-103H (Non-Small Cell Lung Carcinoma)
Procedure, shortened: as §1

[6] = test system: LS-1034 (Colorectal Carcinoma)
Procedure, shortened: as §1

[7] = test system: MDA-MB-415 (Breast Carcinoma)
Procedure, shortened: as §1

[8] = test system: MONO-MAC-6 (Acute Myeloid Leukemia)
Procedure, shortened: as §1

[9] = test system: MS-1 (Small Cell Lung Carcinoma)
Procedure, shortened: as §1

[10] = test system: NAMALWA (Burkitt's Lymphoma)
Procedure, shortened: as §1

NCI-H226 (Mesothelioma) = test system: NCI-H226 (Mesothelioma)
Procedure, shortened: as §1

[11] = test system: NCI-H3118 (Head and Neck Carcinoma)
Procedure, shortened: as §1

[12] = test system: RCC-JW (Kidney Carcinoma)
Procedure, shortened: as §1

[13] = test system: SK-CO-1 (Colorectal Carcinoma)
Procedure, shortened: as §1

SK-N-SH (Neuroblastoma) = test system: SK-N-SH (Neuroblastoma)
Procedure, shortened: as §1

[14] = test system: SNU-423 (Hepatocellular Carcinoma)
Procedure, shortened: as §1

[15] = test system: ZR-75-30 (Breast Carcinoma)
Procedure, shortened: as §1

In the case of O=C(c1cc(Cc2n[nH]c(=O)c3ccccc23)ccc1F)N1CCN(C(=O)C2CC2)CC1 [Olaparib] + COc1nnc2ccc(N3CCC(c4ccc(OCCN5CCN(C)C(=O)[C@H]5C)cc4)CC3)nn12 [AZD5153] (first compound max 10 µM, 7x7, partner max 1 µM), the “combination Emax” value [1] is reported as 0.403, the “combination Emax” value [2] is reported as 0.484 and the “combination Emax” value (GAK (Melanoma)) is reported as 0.451. For the same compound, the “combination Emax” value [3] was 0.334, the “combination Emax” value [4] was 0.352 and the “combination Emax” value (IST-MEL1 (Melanoma)) was 0.252. For the same compound, the “combination Emax” value (KALS-1 (Glioblastoma)) was 0.548, the “combination Emax” value [5] was 0.343 and the “combination Emax” value [6] was 0.453. The “combination Emax” value [7] was 0.362, the “combination Emax” value [8] was 0.882 and the “combination Emax” value [9] was 0.757. For the same compound, the “combination Emax” value [10] was 0.751, the “combination Emax” value (NCI-H226 (Mesothelioma)) was 0.376 and the “combination Emax” value [11] was 0.519. For the same compound, the “combination Emax” value [12] was 0.38, the “combination Emax” value [13] was 0.7 and the “combination Emax” value (SK-N-SH (Neuroblastoma)) was 0.428. The “combination Emax” value [14] was 0.302 and the “combination Emax” value [15] was 0.207.

O=C(c1cc(Cc2n[nH]c(=O)c3ccccc23)ccc1F)N1CCN(C(=O)C2CC2)CC1 [Olaparib] + Cc1c2c(nn1C)CSCc1cc(n(C)n1)CSc1cc(c3ccccc3c1)OCCCc1c(C(=O)O)n(C)c3c-2c(Cl)ccc13 [AZD5991] (first compound max 10 µM, 7x7, partner max 1 µM) was tested, and the “combination Emax” value [1] was 0.043, the “combination Emax” value [2] was 0.329 and the “combination Emax” value (GAK (Melanoma)) was 0.0885. For the same compound, the “combination Emax” value [3] was 0.0669, the “combination Emax” value [4] was 0.0022 and the “combination Emax” value (IST-MEL1 (Melanoma)) was 0.101. The “combination Emax” value (KALS-1 (Glioblastoma)) was 0.163, the “combination Emax” value [5] was 0.192 and the “combination Emax” value [6] was 0.0008. For the same compound, the “combination Emax” value [7] was 0.339, the “combination Emax” value [8] was 0.993 and the “combination Emax” value [9] was 0.501. For the same compound, the “combination Emax” value [10] was 0.979, the “combination Emax” value (NCI-H226 (Mesothelioma)) was 0.107 and the “combination Emax” value [11] was 0.352. For the same compound, the “combination Emax” value [12] was 0.163, the “combination Emax” value [13] was 0.785 and the “combination Emax” value (SK-N-SH (Neuroblastoma)) was 0.333. The “combination Emax” value [14] was 0.16 and the “combination Emax” value [15] was 0.197.

N#Cc1cnc(Nc2cc(NC[C@H]3CNCCO3)c(C(F)(F)F)cn2)cn1 [SRA737] + C=CCn1c(=O)c2cnc(Nc3ccc(N4CCN(C)CC4)cc3)nc2n1-c1cccc(C(C)(C)O)n1 [AZD1775] (first compound max 10 µM, partner max 1 µM) was tested, and the “combination Emax” value [1] was 0.613, the “combination Emax” value [2] was 0.97 and the “combination Emax” value (GAK (Melanoma)) was 0.841. The “combination Emax” value [3] was 0.495, the “combination Emax” value [4] was 0.311 and the “combination Emax” value (IST-MEL1 (Melanoma)) was 0.655. The “combination Emax” value (KALS-1 (Glioblastoma)) was 0.927, the “combination Emax” value [5] was 0.711 and the “combination Emax” value [6] was 0.809. For the same compound, the “combination Emax” value [7] was 0.318, the “combination Emax” value [8] was 1 and the “combination Emax” value [9] was 0.926. The “combination Emax” value [10] was 0.988, the “combination Emax” value (NCI-H226 (Mesothelioma)) was 0.226 and the “combination Emax” value [11] was 0.876. For the same compound, the “combination Emax” value [12] was 0.456, the “combination Emax” value [13] was 0.631 and the “combination Emax” value (SK-N-SH (Neuroblastoma)) was 0.804. The “combination Emax” value [14] was 0.648 and the “combination Emax” value [15] was 0.266.

In the case of N#Cc1cnc(Nc2cc(NC[C@H]3CNCCO3)c(C(F)(F)F)cn2)cn1 [SRA737] + CCc1c2c(nc3ccc(O)cc13)-c1cc3c(c(=O)n1C2)COC(=O)[C@]3(O)CC [SN-38] (first compound max 10 µM, 7x7, partner max 0.3 µM), the “combination Emax” value [1] is reported as 0.671, the “combination Emax” value [2] is reported as 0.943 and the “combination Emax” value (GAK (Melanoma)) is reported as 0.585. The “combination Emax” value [3] was 0.547, the “combination Emax” value [4] was 0.675 and the “combination Emax” value (IST-MEL1 (Melanoma)) was 0.828. The “combination Emax” value (KALS-1 (Glioblastoma)) was 0.928, the “combination Emax” value [5] was 0.817 and the “combination Emax” value [6] was 0.873. The “combination Emax” value [7] was 0.431, the “combination Emax” value [8] was 1 and the “combination Emax” value [9] was 0.799. For the same compound, the “combination Emax” value [10] was 0.994, the “combination Emax” value (NCI-H226 (Mesothelioma)) was 0.248 and the “combination Emax” value [11] was 0.763. The “combination Emax” value [12] was 0.574, the “combination Emax” value [13] was 0.893 and the “combination Emax” value (SK-N-SH (Neuroblastoma)) was 0.892. For the same compound, the “combination Emax” value [14] was 0.648 and the “combination Emax” value [15] was 0.124.

In the case of N#Cc1cnc(Nc2cc(NC[C@H]3CNCCO3)c(C(F)(F)F)cn2)cn1 [SRA737] + Nc1ccn([C@@H]2O[C@H](CO)[C@@H](O)C2(F)F)c(=O)n1 [Gemcitabine] (first compound max 10 µM, 7x7, partner max 0.3 µM), the “combination Emax” value [1] is reported as 0.644, the “combination Emax” value [2] is reported as 0.951 and the “combination Emax” value (GAK (Melanoma)) is reported as 0.506. The “combination Emax” value [3] was 0.61, the “combination Emax” value [4] was 0.373 and the “combination Emax” value (IST-MEL1 (Melanoma)) was 0.709. For the same compound, the “combination Emax” value (KALS-1 (Glioblastoma)) was 0.87, the “combination Emax” value [5] was 0.844 and the “combination Emax” value [6] was 0.919. The “combination Emax” value [7] was 0.638, the “combination Emax” value [8] was 1 and the “combination Emax” value [9] was 0.945. The “combination Emax” value [10] was 1, the “combination Emax” value (NCI-H226 (Mesothelioma)) was 0.462 and the “combination Emax” value [11] was 0.772. The “combination Emax” value [12] was 0.868, the “combination Emax” value [13] was 0.899 and the “combination Emax” value (SK-N-SH (Neuroblastoma)) was 0.852. The “combination Emax” value [14] was 0.745 and the “combination Emax” value [15] was 0.312.

With N#Cc1cnc(Nc2cc(NC[C@H]3CNCCO3)c(C(F)(F)F)cn2)cn1 [SRA737] + O=c1[nH]cc(F)c(=O)[nH]1 [5-Fluorouracil] (first compound max 10 µM, 7x7, partner max 20 µM) the “combination Emax” value [1] was 0.555, the “combination Emax” value [2] was 0.478 and the “combination Emax” value (GAK (Melanoma)) was 0.448. The “combination Emax” value [3] was 0.436, the “combination Emax” value [4] was 0.0378 and the “combination Emax” value (IST-MEL1 (Melanoma)) was 0.528. For the same compound, the “combination Emax” value (KALS-1 (Glioblastoma)) was 0.792, the “combination Emax” value [5] was 0.559 and the “combination Emax” value [6] was 0.77. For the same compound, the “combination Emax” value [7] was 0.381, the “combination Emax” value [8] was 1 and the “combination Emax” value [9] was 0.584. For the same compound, the “combination Emax” value [10] was 0.967, the “combination Emax” value (NCI-H226 (Mesothelioma)) was 0.145 and the “combination Emax” value [11] was 0.575. The “combination Emax” value [12] was 0.21, the “combination Emax” value [13] was 0.654 and the “combination Emax” value (SK-N-SH (Neuroblastoma)) was 0.57. For the same compound, the “combination Emax” value [14] was 0.477 and the “combination Emax” value [15] was 0.169.

Cc1nc(-c2cn3c(n2)-c2ccc(-c4cnn(C(C)(C)C(N)=O)c4)cc2OCC3)n(C(C)C)n1 [Taselisib] + O=C(Nc1ccc2[nH]nc(-c3ccncc3)c2c1)[C@@H]1CCN(CC(=O)N2CCN(c3ccc(-c4ncccn4)cc3)CC2)C1 [SCH772984] (first compound max 10 µM, 7x7, partner max 5 µM) was tested, and the “combination Emax” value [1] was 0.956, the “combination Emax” value [2] was 0.661 and the “combination Emax” value (GAK (Melanoma)) was 0.944. For the same compound, the “combination Emax” value [3] was 0.917, the “combination Emax” value [4] was 0.399 and the “combination Emax” value (IST-MEL1 (Melanoma)) was 0.885. For the same compound, the “combination Emax” value (KALS-1 (Glioblastoma)) was 0.927, the “combination Emax” value [5] was 0.472 and the “combination Emax” value [6] was 0.72. The “combination Emax” value [7] was 0.846, the “combination Emax” value [8] was 0.964 and the “combination Emax” value [9] was 0.48. The “combination Emax” value [10] was 0.65, the “combination Emax” value (NCI-H226 (Mesothelioma)) was 0.393 and the “combination Emax” value [11] was 0.931. The “combination Emax” value [12] was 0.638, the “combination Emax” value [13] was 0.975 and the “combination Emax” value (SK-N-SH (Neuroblastoma)) was 0.72. The “combination Emax” value [14] was 0.82 and the “combination Emax” value [15] was 0.706.

In the case of CC1(C)CCC(CN2CCN(c3ccc(C(=O)NS(=O)(=O)c4ccc(NCC5CCOCC5)c([N+](=O)[O-])c4)c(Oc4cnc5[nH]ccc5c4)c3)CC2)=C(c2ccc(Cl)cc2)C1 [Venetoclax] + CS(=O)(=O)CCNCc1ccc(-c2ccc3ncnc(Nc4ccc(OCc5cccc(F)c5)c(Cl)c4)c3c2)o1 [Lapatinib] (first compound max 1 µM, 7x7, partner max 10 µM), the “combination Emax” value [1] is reported as 0.244, the “combination Emax” value [2] is reported as 0.444 and the “combination Emax” value (GAK (Melanoma)) is reported as 0.229. The “combination Emax” value [3] was 0.192, the “combination Emax” value [4] was 0.207 and the “combination Emax” value (IST-MEL1 (Melanoma)) was 0.293. The “combination Emax” value (KALS-1 (Glioblastoma)) was 0.223, the “combination Emax” value [5] was 0.208 and the “combination Emax” value [6] was 0.322. For the same compound, the “combination Emax” value [7] was 0.242, the “combination Emax” value [8] was 0.353 and the “combination Emax” value [9] was 0.473. For the same compound, the “combination Emax” value [10] was 0.25, the “combination Emax” value (NCI-H226 (Mesothelioma)) was 0.113 and the “combination Emax” value [11] was 0.468. The “combination Emax” value [12] was 0.967, the “combination Emax” value [13] was 0.345 and the “combination Emax” value (SK-N-SH (Neuroblastoma)) was 0.509. For the same compound, the “combination Emax” value [14] was 0.246 and the “combination Emax” value [15] was 0.823.
